Test results taken from patent US6433175B1, “Pyrroloindoles, pyridoindoles and azepinoindoles as 5-ht2c agonists” (Vernalis Research Limited, priority 1998, dated 2002).
Where a name gives a salt, the structure may show the parent alone. Read-outs that look alike come from different tables or passages of the source.

What was measured:
5-HT2A receptor [1] = biological target: T1, 5-HT2A receptor (Homo sapiens, UniProt P28223); assay: Functional activity, FLIPR calcium assay, CHO cells expressing human 5-HT2A; type: cell-based; design: expressed in transfected cells; host or cells: CHO cells; conditions: for EC50: CHO cells; for h5-HT2A Relative Efficacy: maximum fluorescent signal relative to 10 μM 5-HT (100%)
T1 sequence (P28223 whole entry): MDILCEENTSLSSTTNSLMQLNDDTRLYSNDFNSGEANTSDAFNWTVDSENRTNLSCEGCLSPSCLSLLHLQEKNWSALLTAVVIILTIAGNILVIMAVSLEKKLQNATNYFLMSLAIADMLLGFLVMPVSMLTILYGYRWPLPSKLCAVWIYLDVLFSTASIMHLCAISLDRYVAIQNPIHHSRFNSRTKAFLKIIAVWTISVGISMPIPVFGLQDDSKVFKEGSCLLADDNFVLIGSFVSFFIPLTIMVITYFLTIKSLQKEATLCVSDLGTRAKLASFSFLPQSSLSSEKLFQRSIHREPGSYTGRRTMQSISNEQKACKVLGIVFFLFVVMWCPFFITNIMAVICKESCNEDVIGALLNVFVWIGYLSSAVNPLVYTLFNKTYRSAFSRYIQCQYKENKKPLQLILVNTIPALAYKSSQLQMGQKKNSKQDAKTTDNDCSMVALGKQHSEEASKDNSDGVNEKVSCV
Method: (§1) The functional activity of compounds of formula (I) was assayed using a Fluorimetric Imaging Plate reader (FLIPR). CHO cells expressing the human 5-HT2C or human 5-HT2A receptors were counted and plated into standard 96 well microtitre plates on the day before testing to give a confluent monolayer. The cells were then dye loaded with the calcium sensitive dye, Fluo-3-AM. Unincorporated dye was removed using an automated cell washer to leave a total volume of 100 μL/well of assay buffer (Hanks balanced salt solution containing 20 mM Hepes and 2.5 mM probenecid). The drug (dissolved in 50 μL of the assay buffer) was added at a rate of 70 μL/sec to each well of the FLIPR 96 well plate during fluorescence measurements. The measurements were taken at 1 sec intervals and the maximum fluorescent signal was measured (approx 10-15 secs after drug addition) and compared with the response produced by 10 μM 5-HT (defined as 100%) to which it was expressed as a percentage response (relative efficacy). Dose response curves were constructed using Graphpad Prism (Graph Software Inc.).

human 5-HT2C [2] = biological target: T2, human 5-HT2C (Homo sapiens, UniProt P28335); assay: Functional activity, FLIPR calcium assay, CHO cells expressing human 5-HT2C; type: cell-based; design: expressed in transfected cells; host or cells: CHO cells; conditions: for EC50: CHO cells; for h5-HT2c Relative Efficacy: maximum fluorescent signal relative to 10 μM 5-HT (100%)
T2 sequence (P28335 33-458): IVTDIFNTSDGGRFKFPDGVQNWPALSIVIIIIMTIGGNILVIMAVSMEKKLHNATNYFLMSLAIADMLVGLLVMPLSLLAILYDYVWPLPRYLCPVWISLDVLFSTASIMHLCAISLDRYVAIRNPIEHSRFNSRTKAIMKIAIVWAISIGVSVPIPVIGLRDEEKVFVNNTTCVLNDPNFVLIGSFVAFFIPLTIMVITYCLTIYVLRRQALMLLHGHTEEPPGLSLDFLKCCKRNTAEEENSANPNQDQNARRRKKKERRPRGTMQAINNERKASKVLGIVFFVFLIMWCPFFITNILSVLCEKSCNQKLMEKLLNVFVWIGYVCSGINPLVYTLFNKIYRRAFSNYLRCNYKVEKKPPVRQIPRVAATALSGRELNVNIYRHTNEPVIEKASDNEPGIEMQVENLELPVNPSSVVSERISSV
Method: as §1

human 5-HT2B receptors = biological target: T3, human 5-HT2B receptors (Homo sapiens, UniProt P41595); assay: Binding to 5-HT2B receptor, [3H]-5-HT, CHO cell line
T3 construct: expressed in transfected cells; host or cells: CHO cell line
T3 sequence (P41595 whole entry): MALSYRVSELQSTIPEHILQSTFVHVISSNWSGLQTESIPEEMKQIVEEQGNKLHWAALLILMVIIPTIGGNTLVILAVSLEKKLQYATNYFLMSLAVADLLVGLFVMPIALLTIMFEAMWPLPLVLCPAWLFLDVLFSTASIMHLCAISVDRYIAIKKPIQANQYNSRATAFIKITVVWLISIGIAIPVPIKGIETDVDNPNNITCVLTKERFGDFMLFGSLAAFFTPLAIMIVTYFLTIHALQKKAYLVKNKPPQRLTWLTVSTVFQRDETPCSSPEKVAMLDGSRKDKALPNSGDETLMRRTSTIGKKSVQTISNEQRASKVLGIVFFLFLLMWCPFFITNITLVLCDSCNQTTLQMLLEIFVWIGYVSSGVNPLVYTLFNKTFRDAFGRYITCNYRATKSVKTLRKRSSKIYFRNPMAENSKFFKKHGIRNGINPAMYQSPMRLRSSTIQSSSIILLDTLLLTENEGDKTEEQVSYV
Method: (§2) The binding of compounds of formula (I) to serotonin receptors was determined in vitro by standard methods. The preparations were investigated in accordance with the assays given hereinafter.
Method (b): For the binding to the 5-HT2B receptor the 5-HT2B receptors were radiolabeled with [^3H]-5-HT. The affinity of the compounds for human 5-HT2B receptors in a CHO cell line was determined according to the procedure of K. Schmuck, C. Ullmer, P. Engels and H. Lubbert, FEBS Lett., 1994, 342, 85-90.

rats [3] = assay: In vivo efficacy: 5-HT2C syndrome in rats; design: species or system rat; conditions: 20 mg/kg s.c.
Method: The in vivo efficacy of 5-HT2C agonists was assessed by the ability of the compounds to induce three specific behaviours (5HT2C Syndrome) in rats.
The 5-HT2c syndrome is a rapid screening method to assess the in vivo efficacy of 5-HT2c agonists through their ability to induce three specific behaviours in rats. The animals were dosed with either a positive control (mCPP), test compound or vehicle, either sub-cutaneously or p.o. The animals were observed on an open bench, typically 30, 60 and 180 minutes after dosing and the degree of syndrome was assessed over a two minute period on a scale of 0-3 depending on the presence and severity of splayed limbs, hunched posture and retro-pulsion, the three specific behaviours which constitute the syndrome. Data were analysed using Kruskal-Wallis Analysis of Variance followed with appropriate post-hoc tests. All statistical analysis were conducted using Excel version 7.0 (Microsoft Corp.) and Statistica version 5.0 (Statsoft, Inc.).

human 5-HT2C [4] = biological target: T2, human 5-HT2C; assay: Binding to 5-HT2C receptor, [3H]-5-HT, CHO cell line; design: expressed in transfected cells; host or cells: CHO cell line
Method: as §2
Method (a): For the binding to the 5-HT2C receptor the 5-HT2C receptors were radiolabeled with [^3H]-5-HT. The affinity of the compounds for 5-HT2C receptors in a CHO cell line was determined according to the procedure of D. Hoyer, G. Engel and H. O. Kalkman, European J. Pharmacol., 1985, 118, 13-23.

5-HT2A receptor [5] = biological target: T1, 5-HT2A receptor; assay: Binding to 5-HT2A receptor, [125I]-DOI, CHO cell line; design: expressed in transfected cells; host or cells: CHO cell line
Method: as §2
Method (c): For the binding to the 5-HT2A receptor the 5-HT2A receptors were radiolabeled with [^125I]-DOI. The affinity of the compounds for 5-HT2A receptors in a CHO cell line was determined according to the procedure of D. J. McKenna and S. J. Peroutka, J. Neurosci., 1989, 9, 3482-90.

rats [6] = conditions: cited from earlier work
[7] = cited from earlier work
[8] = [3H]-5-HT, human receptor, CHO cell line, read-out: Ki (2B)
[9] = [3H]-5-HT, CHO cell line, read-out: Ki (2C)
[10] = [125I]-DOI, CHO cell line, read-out: Ki (2A)

CSc1ccc2c(c1)c(CC(C)N)c1n2CCC1 (racemic) (as salt: fumarate) [Example 11, (RS)-1-(7-Methylthio-2,3-dihydro-1H-pyrrolo[1,2-a]indol-9-yl)-2-propylamine fumarate]
melting point: 204 to 206 °C (dec.)

COc1ccc2c(c1)c(CC(C)N)c1n2CCC1 (racemic) (as salt: fumarate) [Example 3, (RS)-1-(7-Methoxy-2,3-dihydro-1H-pyrrolo[1,2-a]indol-9-yl)-2-propylamine fumarate]
melting point: 194 to 196 °C

COc1ccc2c(c1)c(CC(C)NCCC(C)C)c1n2CCC1 (racemic) (as salt: hydrochloride)
melting point: 118 to 121 °C

COc1ccc2c(c1)c(CC(C)N)c1n2CCC1 (single isomer, unassigned; enantiomer 1) [Example 8]
EC50 (5-HT2A receptor [1]; FLIPR, read-out: h5-HT2A EC50): 921 nM | h5-HT2A Relative Efficacy (5-HT2A receptor [1]): 36% | EC50 (human 5-HT2C [2]; h5-HT2c EC50, FLIPR): 33 nM | h5-HT2c Relative Efficacy (human 5-HT2C [2]): 58%

CC(N)Cc1c2n(c3ccc(OCc4ccccc4)cc13)CCC2 (racemic) (as salt: fumarate)
melting point: 146 to 147 °C (dec.)

COc1ccc2c(c1)c(CC(C)NCC1CC1)c1n2CCC1 (racemic) (as salt: hydrochloride)
melting point: 149 to 151 °C

CC(N)Cc1c2n(c3cc4c(cc13)OCO4)CCC2 (racemic) [Example 7, (RS)-1-[6,7-(Methylenedioxy)-2,3-dihydro-1H-pyrrolo[1,2-a]indol-9-yl]-2-propylamine fumarate]
EC50 (5-HT2A receptor [1]; FLIPR, read-out: h5-HT2A EC50): 2620 nM | h5-HT2A Relative Efficacy (5-HT2A receptor [1]): 37% | EC50 (human 5-HT2C [2]; h5-HT2c EC50, FLIPR): 227 nM | h5-HT2c Relative Efficacy (human 5-HT2C [2]): 59%

CC(N)Cc1c2n(c3ccc(Cl)cc13)CCC2 (racemic) (as salt: hydrochloride) [Example 1, (RS)-1-(7-Chloro-2,3-dihydro-1H-pyrrolo[1,2-a]indol-9-yl)-2-propylamine hydrochloride]
melting point: 272 to 273 °C

COc1ccc2c(c1)c(CC(C)N)c1n2CCC1 (racemic) [Example 3, (RS)-1-(7-Methoxy-2,3-dihydro-1H-pyrrolo[1,2-a]indol-9-yl)-2-propylamine fumarate]
Ki (human 5-HT2B receptors; [8]): 220 nM | time for which significant pharmacological efficacy is maintained (5-HT2C syndrome) (rats [3]): at least 180 minutes | EC50 (5-HT2A receptor [1]; FLIPR, read-out: h5-HT2A EC50): 636 nM | h5-HT2A Relative Efficacy (5-HT2A receptor [1]): 22% | EC50 (human 5-HT2C [2]; h5-HT2c EC50, FLIPR): 32 nM | h5-HT2c Relative Efficacy (human 5-HT2C [2]): 63% | Ki (human 5-HT2C [4]; [9]): 118 nM | Ki (5-HT2A receptor [5]; [10]): 151 nM

COc1ccc2c(c1)c(CC(C)NCC1CCCCC1)c1n2CCC1 (racemic) (as salt: hydrochloride)
melting point: 210 to 213 °C

CC(N)Cc1c2n(c3cc(F)c(F)cc13)CCC2 (racemic) (as salt: hydrochloride) [Example 2, (RS)-1-(6,7-Difluoro-2,3-dihydro-1H-pyrrolo[1,2-a]indol-9-yl)-2-propylamine hydrochloride]
melting point: 264 to 266 °C

CC(N)Cc1c2n(c3ccc(Br)cc13)CCC2 (racemic) [Example 5, (RS)-1-(7-Bromo-2,3-dihydro-1H-pyrrolo[1,2-a]indol-9-yl)-2-propylamine fumarate]
Ki (human 5-HT2B receptors; [8]): 122 nM | EC50 (5-HT2A receptor [1]; FLIPR, read-out: h5-HT2A EC50): 4020 nM | h5-HT2A Relative Efficacy (5-HT2A receptor [1]): 33% | EC50 (human 5-HT2C [2]; h5-HT2c EC50, FLIPR): 94 nM | h5-HT2c Relative Efficacy (human 5-HT2C [2]): 69% | Ki (human 5-HT2C [4]; [9]): 81 nM | Ki (5-HT2A receptor [5]; [10]): 448 nM

COc1ccc2c(c1)c(CC(C)N)c1n2CCC1 (single isomer, unassigned; enantiomer 2) [Example 9, Enantiomer 2 of 1-(7-Methoxy-2,3-dihydro-1H-pyrrolo[1,2-a]indol-9-yl)-2-propylamine fumarate]
EC50 (5-HT2A receptor [1]; FLIPR, read-out: h5-HT2A EC50): 792 nM | h5-HT2A Relative Efficacy (5-HT2A receptor [1]): 40% | EC50 (human 5-HT2C [2]; h5-HT2c EC50, FLIPR): 7 nM | h5-HT2c Relative Efficacy (human 5-HT2C [2]): 81%

CC(N)Cc1c2n(c3ccc(Cl)cc13)CCC2 (racemic) [Example 1, (RS)-1-(7-Chloro-2,3-dihydro-1H-pyrrolo[1,2-a]indol-9-yl)-2-propylamine hydrochloride]
Ki (human 5-HT2B receptors; [8]): 229 nM | EC50 (5-HT2A receptor [1]; FLIPR, read-out: h5-HT2A EC50): 3240 nM | h5-HT2A Relative Efficacy (5-HT2A receptor [1]): 33% | EC50 (human 5-HT2C [2]; h5-HT2c EC50, FLIPR): 96 nM | h5-HT2c Relative Efficacy (human 5-HT2C [2]): 68% | Ki (human 5-HT2C [4]; [9]): 110 nM | Ki (5-HT2A receptor [5]; [10]): 457 nM

Cc1ccc2c(c1)c(CC(C)N)c1n2CCC1 (racemic) [Example 6, (RS)-1-(7-Methyl-2,3-dihydro-1H-pyrrolo[1,2-a]indol-9-yl)-2-propylamine fumarate]
EC50 (5-HT2A receptor [1]; FLIPR, read-out: h5-HT2A EC50): > 10000 nM | EC50 (human 5-HT2C [2]; h5-HT2c EC50, FLIPR): 348 nM | h5-HT2c Relative Efficacy (human 5-HT2C [2]): 56%

COc1ccc2c(c1)c(CC(C)NCC(C)(C)C)c1n2CCC1 (racemic) (as salt: hydrochloride)
melting point: 226 to 228 °C

Cc1ccc2c(c1)c(CC(C)N)c1n2CCC1 (racemic) (as salt: fumarate) [Example 6, (RS)-1-(7-Methyl-2,3-dihydro-1H-pyrrolo[1,2-a]indol-9-yl)-2-propylamine fumarate]
melting point: 138 to 139 °C

CC(N)Cc1c2n(c3cccc(Cl)c13)CCC2 (racemic) (as salt: fumarate)
melting point: 207 to 208 °C

CC(N)Cc1c2n(c3cc(F)c(F)cc13)CCC2 (racemic) [Example 2, (RS)-1-(6,7-Difluoro-2,3-dihydro-1H-pyrrolo[1,2-a]indol-9-yl)-2-propylamine hydrochloride]
Ki (human 5-HT2B receptors): 102 nM | EC50 (5-HT2A receptor [1]; h5-HT2A EC50, FLIPR): > 1000 nM | h5-HT2A Relative Efficacy (5-HT2A receptor [1]): 12% | EC50 (human 5-HT2C [2]; FLIPR, read-out: h5-HT2c EC50): 147 nM | h5-HT2c Relative Efficacy (human 5-HT2C [2]): 38% | Ki (human 5-HT2C [4]): 97 nM | Ki (5-HT2A receptor [5]): 257 nM

Clc1cccc(N2CCNCC2)c1 [mCPP, m-chlorophenylpiperazine]
food intake in rats (rats [6]): reduce food intake | appetite and body weight of obese subjects ([7]; obese male and female subjects, subchronic treatment for 14 days): decreased the appetite and body weight | food intake in female volunteers ([7]; single dose, female volunteers): decreased food intake

CSc1ccc2c(c1)c(CC(C)N)c1n2CCC1 (racemic) [Example 11, (RS)-1-(7-Methylthio-2,3-dihydro-1H-pyrrolo[1,2-a]indol-9-yl)-2-propylamine fumarate]
Ki (human 5-HT2B receptors; [8]): 115 nM | EC50 (5-HT2A receptor [1]; FLIPR, read-out: h5-HT2A EC50): > 10000 nM | EC50 (human 5-HT2C [2]; h5-HT2c EC50, FLIPR): 8 nM | h5-HT2c Relative Efficacy (human 5-HT2C [2]): 80% | Ki (human 5-HT2C [4]; [9]): 84 nM | Ki (5-HT2A receptor [5]; [10]): 316 nM
